The record followed here is PubChem BioAssay AID1918986 (Small Molecule Screening Facility, UW Madison, 2023).

Calls of active or inactive are those of the source.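 The calls were made as follows: active = full-shape inhibition curve with partial efficacy, or partial curve whose IC50 upper confidence bound lies within tested doses; inactive = the rest.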

This assay concerns the target Klebsiella pneumoniae PriA-SSB C-terminal tail interaction. Description: inhibitors of PriA–SSB C-terminal tail binding, dose response, biochemical, AlphaScreen, virtual screen prioritized set (AID 1918986). The settings on record: PriA binding to biotinylated SSBct peptide. Background: In Alpha technology, singlet oxygen from a donor bead excites a nearby acceptor bead.
The IC50 is the concentration that inhibits the measured activity by half. Turning to `CC1Sc2ccc(C(=O)Nc3nc(-c4ccccn4)cs3)cc2NC1=O` (stereo not drawn), the IC50 was 7.99 µM. On the same count and under the same terms, the value for `OCCCCNc1ccc2ccc3cccnc3c2n1` was 4.33 µM; that for `O=C1CC2(CCOC2)C(C(=O)Nc2nc(-c3ccccn3)cs2)CN1` (stereo not drawn) was 12.6 µM. For the compound `Cc1nn(C(C)C)cc1-c1ccc2cccnc2c1C`, the outcome was inactive. On the same count and under the same terms, the value for `c1ccc(-c2cnc3n2CCC3)nc1` was “inactive”. In the case of `CC(C)N(C)S(=O)(=O)c1ccc(F)c(C(=O)Nc2nc(-c3ccccn3)cs2)c1`, the IC50 was 6.82 µM.

Take `c1cc2c(c(-c3cccc4cccnc34)c1)CNC2`: the result was inactive. Still for that read-out and setting: the result for `OCCCN(CCO)c1ccc2ccc3cccnc3c2n1` reads “inactive”; that for `Clc1cccnc1NN=Cc1ccccn1`, “inactive”.

On to `Cn1ccc(C23CCC(C2)C3C(=O)Nc2nc(-c3ccccn3)cs2)n1` (stereo not drawn), for which the IC50 was 22.2 µM. Regarding `CCc1nc(C)c(CSc2cccc3cccnc23)o1`, the outcome was inactive.

`c1cnc2c(SCc3ccn4ncnc4c3)cccc2c1`: the outcome was inactive. As for `CC1CC(Nc2nc(-c3ccccn3)nc3c2CCC3)CC(C)N1` (stereo not drawn), the IC50 is 12.1 µM. On to `Clc1ccc(CN2CCOCCOCC2)c2ncccc12`, for which the outcome was inactive. Take `O=C(O)c1cc(-c2ccccc2)ccn1`: the IC50 was 21 µM.

With `Fc1cccc2[nH]c(-c3ccccn3)nc12`, the outcome was inactive. Same read-out and setting: the value for `c1cc(CSc2cccc3cccnc23)cc(CN2CCOCC2)c1` was “inactive”. In the case of `CC1CCC(=NNc2ccccc2[N+](=O)[O-])CC1` (stereo not drawn), the IC50 was 3.64 µM. Take `O=C(Cc1ccc(S(=O)(=O)N2CCOCC2)s1)Nc1nc(-c2ccccn2)cs1`: the result was inactive. Take `CSCC(CCO)Nc1ccc2ccc3cccnc3c2n1` (stereo not drawn): the IC50 was 9.08 µM. As for `Cc1cccc2nc(CSc3cccc4cccnc34)cn12`, the result was inactive.

On to `O=C(Nc1nc(-c2ccccn2)cs1)C1(C2CCCCO2)CCCO1` (stereo not drawn), for which the result was inactive. For the compound `C1=C(c2cccc3cccnc23)CCNC1`, the outcome was inactive.

Regarding `c1ccc(-c2n[nH]c3ccccc23)nc1`, the outcome was inactive.

On to `CCOC(=O)c1[nH]c(C)c(C(=O)CSc2cccc3cccnc23)c1C`, for which the result was inactive. Still for that read-out and setting: the result for `Nc1ncc(-c2ccccn2)cn1` reads “inactive”. As to `Fc1cccc(CNc2nc(-c3ccccn3)nc3c2CCC3)c1F`, the IC50 is 6.11 µM. The same measure, in the same setting: the result for `C(=NNc1ncnc2sccc12)c1ccccn1` reads 2.68 µM.

With `O=c1[nH]c(NN=Cc2ccccn2)nc2ccccc12`, the outcome was inactive. The same measure, in the same setting: the result for `CC(C)c1ncc(-c2cccc3cccnc23)n1C` reads “inactive”; that for `COC(C)COc1ccc2ccc3cccnc3c2n1` (stereo not drawn), “inactive”. On the same count and under the same terms, the value for `O=c1[nH]ncc(NN=Cc2ccccn2)c1Cl` was “inactive”; that for `Oc1cccnc1SCc1ccc(F)c2cccnc12` was “inactive”. In the case of `COc1cc([N+](=O)[O-])c(C(=O)Nc2nc(-c3ccccn3)cs2)cc1SC`, the IC50 is 7.02 µM.

In the case of `CCCN1CCCc2cc(C(C)C)ccc21`, the result was inactive.

In the case of `Cc1cc(-c2ccccn2)n[nH]1`, the outcome was inactive. With `Cc1c(N)nc(-c2ccccn2)nc1NCC1CCC(C2CC2)O1` (stereo not drawn), the 50% inhibitory concentration (IC50) is 5.44 µM.

In the case of `O=[N+]([O-])c1ncn(Cc2cccc3cccnc23)n1`, the outcome was inactive. With `O=C(Nc1nc(-c2ccccn2)cs1)c1ccc(Cl)c(S(=O)(=O)NCC2CCCO2)c1` (stereo not drawn), the 50% inhibitory concentration (IC50) was 10 µM. The same measure, in the same setting: the value for `c1ccc(-c2ncc[nH]2)nc1` was 15.7 µM; that for `CO[C@H](C)[C@@H](C)Nc1nc(-c2ccccn2)nc2c1CCC2` was 13.9 µM.

For the compound `c1cnc2c(SCCn3cncn3)cccc2c1`, the outcome was inactive. On the same count and under the same terms, the result for `c1cnc2c(Cn3ccnc3)cccc2c1` reads “inactive”. In the case of `CC1CC(Nc2nc(-c3ccccn3)cs2)C1` (stereo not drawn), the IC50 was 13.1 µM. With `Cc1ccc(-c2nc(SCC(=O)NCc3ccnc(-c4ccccn4)n3)n[nH]2)cc1`, the IC50 is 37.8 µM. In the case of `C1=C[C@@H](CNc2nc(-c3ccccn3)cs2)[C@H]2CO[C@@H]1C2`, the IC50 is 11.5 µM.

Take `O=C(O)CSc1ccc([N+](=O)[O-])c2cccnc12`: the outcome was inactive. Still for that read-out and setting: the value for `c1ccc(-c2csc(NC3COC4(CCC4)C3)n2)nc1` (stereo not drawn) was “inactive”; that for `CC(C)(C)c1ncc(-c2cccc3cccnc23)o1` was “inactive”; that for `CCOC(=O)c1c(C)[nH]c(C(=O)CSc2cccc3cccnc23)c1C` was “inactive”.

As to `C(=NNc1ncnc2nc[nH]c12)c1ccccn1`, the IC50 was 1.29 µM.

As for `Clc1cncnc1NN=Cc1ccccn1`, the IC50 is 1.7 µM. On the same count and under the same terms, the result for `O=C(CN1C(=O)COc2ccc([N+](=O)[O-])cc21)Nc1nc(-c2ccccn2)cs1` reads 12.4 µM; that for `c1ccc(-c2nc3c(c(N4CCCC4)n2)CCC3)nc1`, 17.6 µM. In the case of `Cc1ccc(-n2nc(C)cc2NC(=O)CSc2cccc3cccnc23)cc1`, the result was inactive. Still for that read-out and setting: the result for `CN(C)CCN(C)c1ccc2ccc3cccnc3c2n1` reads “inactive”; that for `O=C(CSc1cccc2cccnc12)Nc1cccc(N2CCCC2=O)c1`, “inactive”; that for `c1cncc(CSCc2cccc3cccnc23)c1`, “inactive”. For `CSCC(CCO)Nc1ccnc2c1ccc1cccnc12` (stereo not drawn), the IC50 was 10.8 µM. `O=[N+]([O-])c1ccc(SC2CCCCC2)c2ncccc12`: the IC50 entry was “inactive”. Regarding `CC1(C)CC(CSc2cccc3cccnc23)=NO1`, the outcome was inactive. On the same count and under the same terms, the value for `O=C(O)c1cc(C(=O)N2CCS(=O)(=O)CC2)ccn1` was “inactive”.

Turning to `Cc1cc(C)cc(OCCN(C)C(=O)CSc2cccc3cccnc23)c1`, the result was inactive. For the compound `O[C@@H]1COC[C@@H]1Nc1ccc2ccc3cccnc3c2n1`, the IC50 is 4.26 µM. On the same count and under the same terms, the result for `FC(F)(F)c1cnc(NN=Cc2ccccn2)c(Cl)c1` reads 20.2 µM; that for `OCCC(Nc1ccnc2c1ccc1cccnc12)C(F)F` (stereo not drawn), 4.48 µM; that for `Cc1nc(SCC(=O)Nc2n[nH]c(-c3ccccn3)n2)n[nH]1`, 15.5 µM.

For the compound `O=[N+]([O-])c1cc(Cl)cc(C=Nc2ccc(Cl)c3ncccc23)c1O`, the result was inactive.
